Patent publication US20090136553A1, “TRIGGERABLY DISSOLVABLE HOLLOW FIBERS FOR CONTROLLED DELIVERY” (priority 2007, published 2009)

What was measured:
[1] = tested on: surgically created aneurysm; settings: bFGF collagen gel in fiber lumen, three weeks; cited from earlier work
[2] = tested on: endothelial cell migration and vessel formation in Matrigel plug; assay: In vivo murine Matrigel plug assay; design: species or system C57BL/6 mice; settings: 10 μL daily of 100 μg/mL VEGF or 1800 μM S1P via fiber, 7 days post-implantation
Protocol: In vivo Assay. Growth factor reduced Matrigel™ (500 μL) was injected into the subcutaneous space on the dorsal side of C57BL/6 mice on both the left and right sides. A 12 G needle was used to thread cellulose hollow fibers through the skin and Matrigel™ plugs. Hollow fibers were fixed in place using tissue glue and an Elizabethan collar was used to prevent mice from extracting the hollow fiber. On the day of implantation and every day for the next 6 days, hollow fibers on the left side were injected with sterile saline and hollow fibers on the right side were injected with 10 μL of 100 μg/mL VEGF or 1800 μM S1P (see Table 8 for schedule).
Seven days post-implantation, implants were extracted, fixed and analyzed for endothelial cell migration and vessel formation. […] CD31 staining of Matrigel™ plug explants confirms that cells that have migrated into the Matrigel™ plugs are in fact endothelial cells (FIGS. 21E-H). Metamorph® was used to measure the % area of each image that consisted of endothelial cell staining in order to quantify endothelial cell migration.

Row | Substance | fibrous tissue formation in aneurysm [1] | blood filled vessels (H&E) [2]
1 | basic fibroblast growth factor [bFGF] | remained functional as it was able to guide the aneurysm to create fibrous tissue | 
2 | vascular endothelial growth factor [VEGF] |  | blood filled vessels
